From patent publication US10131652B2, “Pyrimidinyloxy benzene derivatives as herbicides” (E. I. DU PONT DE NEMOURS AND COMPANY, priority 2014, dated 2018)
Where two headings read alike, the source gives them in different places.

Experiments:
Test in all cases: Test D pre-/postemergence plant response
Format in all cases: in vivo
[1] = test system: giant foxtail (Setaria faberii); conditions: Setaria faberi, pre-emergence, Preemergence, scale 0 to 100 (0 no effect, 100 complete control), read-out: Plant response rating, Foxtail, Giant
Procedure, shortened: (§1)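 Seeds were planted in a loam and sand blend and sprayed preemergence. In parallel, seedlings grown in peat moss/vermiculite medium were sprayed postemergence at 2 to 18 cm height. Both used a surfactant-containing non-phytotoxic solvent. Greenhouse ratings at 13 to 15 days used a 0–100 control scale.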

[2] = test system: ragweed (common ragweed, Ambrosia elatior); conditions: Ambrosia artemisiifolia; for pest or weed control at 31 g/ha: 31 g ai/ha; for pest or weed control at 62 g/ha: 62 g ai/ha; for pest or weed control at 125 g/ha: 125 g ai/ha
Procedure, shortened: as §1

[3] = test system: barnyardgrass (Echinochloa crus-galli); conditions: Echinochloa crus-galli; for pest or weed control at 16 g/ha: 16 g ai/ha; for pest or weed control at 31 g/ha: 31 g ai/ha; for pest or weed control at 62 g/ha: 62 g ai/ha; for pest or weed control at 125 g/ha: 125 g ai/ha
Procedure, shortened: as §1

[4] = test system: corn (Zea mays); conditions: Zea mays; for Corn plant response rating (crop injury, 0 = no effect, 100 = complete kill) at 62 g/ha: 62 g ai/ha
Procedure, shortened: as §1

[5] = test system: large (Lg) crabgrass (Digitaria sanguinalis); conditions: Digitaria sanguinalis; for pest or weed control at 16 g/ha: 16 g ai/ha; for pest or weed control at 31 g/ha: 31 g ai/ha; for pest or weed control at 62 g/ha: 62 g ai/ha; for pest or weed control at 125 g/ha: 125 g ai/ha
Procedure, shortened: as §1

[6] = test system: yellow nutsedge (Cyperus esculentus); conditions: Cyperus; for pest or weed control at 31 g/ha: 31 g ai/ha; for pest or weed control at 62 g/ha: 62 g ai/ha; for pest or weed control at 125 g/ha: 125 g ai/ha
Procedure, shortened: as §1

[7] = test system: oilseed rape (Brassica napus); conditions: Brassica napus; for plant injury at 31 g/ha: 31 g ai/ha
Procedure, shortened: as §1

[8] = post-emergence, Postemergence, scale 0 to 100, 0 no effect, 100 complete control, read-out: Plant response rating, Ragweed
[9] = pre-emergence, Preemergence, scale 0 to 100 (0 no effect, 100 complete control), read-out: Plant response rating, Ragweed
[10] = post-emergence, Postemergence, scale 0 to 100 (0 no effect, 100 complete control), read-out: Barnyardgrass plant response rating
[11] = post-emergence, Postemergence, scale 0 to 100, 0 no effect, 100 complete control, read-out: Plant response rating, Barnyardgrass
[12] = pre-emergence, Preemergence, scale 0 to 100 (0 no effect, 100 complete control), read-out: Plant response rating, Barnyardgrass
[13] = post-emergence, Postemergence, scale 0 to 100 (0 no effect, 100 complete control), read-out: Crabgrass, Large plant response rating
[14] = post-emergence, Postemergence, scale 0 to 100, 0 no effect, 100 complete control, read-out: Plant response rating, Crabgrass, Large
[15] = pre-emergence, Preemergence, scale 0 to 100 (0 no effect, 100 complete control), read-out: Plant response rating, Crabgrass, Large
[16] = post-emergence, Postemergence, scale 0 to 100, 0 no effect, 100 complete control, read-out: Plant response rating, Nutsedge, Yellow
[17] = pre-emergence, Preemergence, scale 0 to 100 (0 no effect, 100 complete control), read-out: Plant response rating, Nutsedge, Yellow

Compound: Fc1cccc(Oc2ncc(Br)cn2)c1-c1cc(C(F)F)no1 [Compound 145, 5-bromo-2-[2-[3-(difluoromethyl)-5-isoxazolyl]-3-fluorophenoxy]pyrimidine]
- pest or weed control at 16 g/ha ([1]; 16 g ai/ha): 85%
- pest or weed control at 31 g/ha ([1]; 31 g ai/ha): 100%
- pest or weed control at 62 g/ha ([1]; 62 g ai/ha): 100%
- pest or weed control at 31 g/ha ([2]; post-emergence, Postemergence, scale 0 to 100 (0 no effect, 100 complete control), read-out: Ragweed plant response rating): 50%
- pest or weed control at 62 g/ha [2, 8]: 50%
- pest or weed control at 125 g/ha [2, 8]: 65%
- pest or weed control at 125 g/ha ([2]; pre-emergence, Preemergence, read-out: Plant response rating (scale 0 to 100), Ragweed): 100%
- pest or weed control at 16 g/ha ([2]; pre-emergence, Preemergence, 16 g ai/ha, scale 0 to 100 (0 no effect, 100 complete control), read-out: Plant response rating, Ragweed): 25%
- pest or weed control at 31 g/ha [2, 9]: 60%
- pest or weed control at 62 g/ha [2, 9]: 75%
- pest or weed control at 16 g/ha [3, 10]: 5%
- pest or weed control at 31 g/ha [3, 10]: 5%
- pest or weed control at 62 g/ha [3, 11]: 10%
- pest or weed control at 125 g/ha [3, 11]: 30%
- pest or weed control at 125 g/ha ([3]; pre-emergence, Preemergence, read-out: Plant response rating (scale 0 to 100), Barnyardgrass): 100%
- pest or weed control at 16 g/ha [3, 12]: 65%
- pest or weed control at 31 g/ha [3, 12]: 85%
- pest or weed control at 62 g/ha [3, 12]: 85%
- plant injury at 16 g/ha ([4]; post-emergence, Postemergence, 16 g ai/ha, scale 0 to 100 (0 no effect, 100 complete control), read-out: Corn plant response rating): 5%
- plant injury at 31 g/ha ([4]; post-emergence, Postemergence, 31 g ai/ha, scale 0 to 100 (0 no effect, 100 complete control), read-out: Corn plant response rating): 5%
- Corn plant response rating (crop injury, 0 = no effect, 100 = complete kill) at 62 g/ha ([4]; post-emergence, Postemergence, scale 0 to 100, 0 no effect, 100 complete control): 5%
- Corn plant response rating (crop injury, 0 = no effect, 100 = complete kill) at 125 g/ha ([4]; post-emergence, Postemergence, 125 g ai/ha, scale 0 to 100, 0 no effect, 100 complete control): 10%
- plant injury at 125 g/ha ([4]; pre-emergence, Preemergence, 125 g ai/ha, read-out: Plant response rating (scale 0 to 100), Corn): 45%
- Corn plant response rating (crop injury, 0 = no effect, 100 = complete kill) at 16 g/ha ([4]; pre-emergence, Preemergence, 16 g ai/ha, scale 0 to 100 (0 no effect, 100 complete control)): 0%
- Corn plant response rating (crop injury, 0 = no effect, 100 = complete kill) at 31 g/ha ([4]; pre-emergence, Preemergence, 31 g ai/ha, scale 0 to 100 (0 no effect, 100 complete control)): 5%
- Corn plant response rating (crop injury, 0 = no effect, 100 = complete kill) at 62 g/ha ([4]; pre-emergence, Preemergence, scale 0 to 100 (0 no effect, 100 complete control)): 10%
- pest or weed control at 16 g/ha [5, 13]: 5%
- pest or weed control at 31 g/ha [5, 13]: 10%
- pest or weed control at 62 g/ha [5, 14]: 10%
- pest or weed control at 125 g/ha [5, 14]: 20%
- pest or weed control at 125 g/ha ([5]; pre-emergence, Preemergence, read-out: Plant response rating (scale 0 to 100), Crabgrass, Large): 100%
- pest or weed control at 16 g/ha [5, 15]: 85%
- pest or weed control at 31 g/ha [5, 15]: 100%
- pest or weed control at 62 g/ha [5, 15]: 100%
- pest or weed control at 31 g/ha ([6]; post-emergence, Postemergence, scale 0 to 100 (0 no effect, 100 complete control), read-out: Nutsedge, Yellow plant response rating): 5%
- pest or weed control at 62 g/ha [6, 16]: 5%
- pest or weed control at 125 g/ha [6, 16]: 10%
- pest or weed control at 125 g/ha ([6]; pre-emergence, Preemergence, read-out: Plant response rating (scale 0 to 100), Nutsedge, Yellow): 45%
- pest or weed control at 16 g/ha ([6]; pre-emergence, Preemergence, 16 g ai/ha, scale 0 to 100 (0 no effect, 100 complete control), read-out: Plant response rating, Nutsedge, Yellow): 0%
- pest or weed control at 31 g/ha [6, 17]: 0%
- pest or weed control at 62 g/ha [6, 17]: 30%
- plant injury at 31 g/ha ([7]; post-emergence, Postemergence, scale 0 to 100 (0 no effect, 100 complete control), read-out: Oilseed Rape plant response rating): 70%
- plant injury at 125 g/ha ([7]; pre-emergence, Preemergence, 125 g ai/ha, read-out: Plant response rating (scale 0 to 100), Oilseed Rape): 100%
- plant injury at 16 g/ha ([7]; pre-emergence, Preemergence, 16 g ai/ha, scale 0 to 100 (0 no effect, 100 complete control), read-out: Plant response rating, Oilseed Rape): 40%
- plant injury at 31 g/ha ([7]; pre-emergence, Preemergence, scale 0 to 100 (0 no effect, 100 complete control), read-out: Plant response rating, Oilseed Rape): 100%
- plant injury at 62 g/ha ([7]; pre-emergence, Preemergence, 62 g ai/ha, scale 0 to 100 (0 no effect, 100 complete control), read-out: Plant response rating, Oilseed Rape): 100%
